Reference: article PMC12376128, “In vitro and In Vivo Drug Metabolism Analysis of BPI-460372 - A Covalent TEAD1/3/4 Inhibitor” (Current Drug Metabolism, 2025)

Assays:
[1] = system: monkey hepatocytes; assay: Metabolism and metabolite formation in hepatocytes; assay type: in vitro ADME, cynomolgus monkey; details: cynomolgus monkey hepatocytes, 10 µM BPI-460372, 4 h incubation
From the text: (§1) All the samples were duplicates.

[2] = system: mouse hepatocytes; assay: Metabolism and metabolite formation in hepatocytes; assay type: in vitro ADME, ICR mouse; details: ICR mouse hepatocytes, 10 µM BPI-460372, 4 h incubation
From the text: as §1

[3] = Metabolite identification in rat plasma, urine, feces and bile; assay type: in vivo, SD rats
Method in brief: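 Pooled sex-specific samples from SD rats: plasma after 12 mg/kg, urine, feces and bile (collected over 0-48 h) after 6 mg/kg; beagle dog plasma after 8 mg/kg. Acetonitrile extraction (urine centrifuged only), dried, redissolved in acetonitrile/water 20:80, analysed by UHPLC-Orbitrap-HRMS.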

[4] = biological target: T1, CYP1A2 (Homo sapiens, UniProt P05177); assay: Metabolic stability in recombinant human CYP isoenzymes; assay type: in vitro ADME; design: purchased Cypex Ltd. (Dundee, UK); details: rCYP1A2 100 pmol P450/mL, 1 µM
T1 sequence (P05177 1-516): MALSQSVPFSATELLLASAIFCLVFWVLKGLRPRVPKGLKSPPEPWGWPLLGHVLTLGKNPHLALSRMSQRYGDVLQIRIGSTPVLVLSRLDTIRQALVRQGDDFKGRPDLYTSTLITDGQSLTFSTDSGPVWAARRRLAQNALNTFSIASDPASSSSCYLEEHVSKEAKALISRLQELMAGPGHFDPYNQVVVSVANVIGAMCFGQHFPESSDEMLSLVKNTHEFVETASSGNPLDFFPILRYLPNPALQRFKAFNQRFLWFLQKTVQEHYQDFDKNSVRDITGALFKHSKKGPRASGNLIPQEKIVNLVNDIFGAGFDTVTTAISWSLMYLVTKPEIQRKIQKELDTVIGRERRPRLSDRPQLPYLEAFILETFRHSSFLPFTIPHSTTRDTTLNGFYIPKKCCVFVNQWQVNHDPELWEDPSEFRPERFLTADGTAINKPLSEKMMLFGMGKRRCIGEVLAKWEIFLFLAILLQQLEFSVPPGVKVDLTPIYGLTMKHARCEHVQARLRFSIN
Description: (§2) To identify the specific isoform that participates in the metabolism of BPI-460372, 1 µM BPI-460372 or positive control substrates were mixed with recombinant human CYP1A2, 2B6, 2C8, 2C9, 2C19, 2D6 or 3A4 (100 pmol P450·mL^-1), and the reaction was started by the addition of NADPH (1 mM final concentration) after 5-minute preincubation at 37°C. Aliquots were maintained in acetonitrile containing IS at different time points at 0 min, 5 min, 10 min, 20 min, 30 min, and 60 min. All incubations were performed in triplicate, and the concentration of the supernatant was determined by LC-MS/MS.
(§3) A substrate depletion approach was employed to determine the intrinsic clearance (CLint (rCYPj)) for each isoform. The contribution of each isoform was estimated using equations 2 and 3. CYPj abundance was evaluated as the abundance (CYPj) of each isoform in HLMs (pmol/mg protein).

[5] = biological target: CYP2C9 (Homo sapiens, UniProt P11712); assay: as above; assay type: in vitro ADME; design: purchased Cypex Ltd. (Dundee, UK); details: rCYP2C9 100 pmol P450/mL, 1 µM
Sequence of CYP2C9 (P11712 whole entry): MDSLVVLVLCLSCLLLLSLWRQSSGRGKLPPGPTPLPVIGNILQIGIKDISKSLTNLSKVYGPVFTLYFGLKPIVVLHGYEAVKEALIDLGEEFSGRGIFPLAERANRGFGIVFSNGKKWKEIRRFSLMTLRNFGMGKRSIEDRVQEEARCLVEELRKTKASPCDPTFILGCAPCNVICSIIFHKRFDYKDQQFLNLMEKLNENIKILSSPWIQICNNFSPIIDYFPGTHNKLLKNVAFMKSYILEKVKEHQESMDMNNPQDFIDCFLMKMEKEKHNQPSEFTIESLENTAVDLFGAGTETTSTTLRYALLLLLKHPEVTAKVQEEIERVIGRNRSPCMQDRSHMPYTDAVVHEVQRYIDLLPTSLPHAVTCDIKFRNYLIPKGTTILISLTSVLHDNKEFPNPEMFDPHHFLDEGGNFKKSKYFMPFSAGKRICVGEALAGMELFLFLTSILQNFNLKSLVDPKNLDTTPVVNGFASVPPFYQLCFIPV
Description: as §2, §3

[6] = biological target: CYP2D6 (Homo sapiens, UniProt P10635); assay: as above; assay type: in vitro ADME; design: purchased Cypex Ltd. (Dundee, UK); details: rCYP2D6 100 pmol P450/mL, 1 µM
Sequence of CYP2D6 (P10635 whole entry): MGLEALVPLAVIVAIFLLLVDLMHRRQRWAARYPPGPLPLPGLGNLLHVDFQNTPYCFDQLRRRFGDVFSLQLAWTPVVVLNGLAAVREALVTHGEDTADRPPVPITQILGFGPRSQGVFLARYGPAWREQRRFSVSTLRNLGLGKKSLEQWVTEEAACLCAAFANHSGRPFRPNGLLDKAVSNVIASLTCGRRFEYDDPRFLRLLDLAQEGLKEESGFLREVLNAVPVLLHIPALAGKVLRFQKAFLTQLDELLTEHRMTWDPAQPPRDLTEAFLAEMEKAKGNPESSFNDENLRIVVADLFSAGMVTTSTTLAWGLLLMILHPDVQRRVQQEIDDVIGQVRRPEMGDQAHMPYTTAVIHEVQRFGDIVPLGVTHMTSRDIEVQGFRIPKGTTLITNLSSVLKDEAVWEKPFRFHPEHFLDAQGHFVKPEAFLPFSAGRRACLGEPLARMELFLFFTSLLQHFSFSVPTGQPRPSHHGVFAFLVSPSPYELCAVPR
Description: as §2, §3

[7] = oral 6 mg/kg BPI-460372, average of male and female pooled samples

Structure (SMILES): C=C(F)C(=O)N1CC(n2c(=O)n(-c3ccc(C(F)(F)F)cc3)c3nccnc32)C1 [BPI-460372]
- UV (314 nm) Peak Areas Relative Abundance [1]: 63.98%
- UV (314 nm) Peak Areas Relative Abundance [2]: 32.74%
- Relative abundance of MS peak areas, Rat Bile 0-48 h [3, 7]: 0.67%
- Relative abundance of MS peak areas, Rat Feces 0-48 h [3, 7]: 16.95%
- Relative abundance of MS peak areas, Rat Urine 0-48 h [3, 7]: 0.12%
- Relative abundance of MS peak areas, Rat Plasma 0-24 h ([3]; oral 12 mg/kg BPI-460372, average of male and female pooled samples): 75.36%
- Contribution [4]: 13.1%
- Contribution [5]: 6.3%
- Contribution [6]: 43.6%
